Reference: patent US20110217258A1, “Combined Use of Bendamustine, Doxorubicin and Bortezomib for the Treatment of Multiple Myeloma” (Indiana University Research and Technology Corporation, priority 2008, published 2011)

System: H929 and MM1R myeloma cell lines
Experiment: MTS cellular cytotoxicity assay, single agent
Format: cell-based
Procedure: H929 and MM1R myeloma cell lines were cultured in vitro and cellular cytotoxicity was measured by MTS ([3-(4,5-dimethylthiazol-2-yl)-5-(3-carboxymethoxyphenyl)-2-(4-sulfophenyl)-2H-tetrazolium, inner salt) assay. The effect of the combination in terms of additive, antagonistic, or synergistic activity was assessed by Valeriote and Lin's method (Valeriote and Lin, Cancer Chemother Rep 1975; 59:895-900). […] To test the effect of the combination of all three drugs, cells were cultured with bendamustine (15 μg/ml) and doxorubicin (0.03 μg/ml) for 48 hours, and bortezomib (2.5 nmol/L) was added in the last 24 hours, and cytotoxicity was assayed.

In the case of `Cl.Cn1c(CCCC(=O)O)nc2cc(N(CCCl)CCCl)ccc21` [bendamustine, 1H-benzimidazole-2-butanoic acid, 5-[bis(2-chloroethyl)amino]-1-methyl-, monohydrochloride], the CC50 (48 h, read-out: concentration lethal to 50% of cells (LC50)) is reported as 34.9 ± 3.4 µg/mL and the “MM cell death induced by drug alone” value (bendamustine alone, repeated experiments) is reported as “time and dose-dependent”.
